Tests used:
[1] = Single dose toxicity study in dogs; type: in vivo, dog; settings: beagle dogs, single oral dose 10, 30, 100 mg/kg
Experimental: Single Dose Toxicity Study in Dogs
The study was carried out with TOYO beagles (KITAYAMA LABES CO., LTD., Hongou farm), four dogs per each sex. They were 5-month old on arrival at testing facility, and were 10-month old when started to be administered. Basal diet was 300 g/day, DS-A (Oriental Yeast Co., Ltd.), and drinking water was tap water. Allocation to the groups was carried out so that an animal number was allocated in order of quarantine number for males and females respectively whose clinical signs and results of clinical laboratory test were considered to be normal.
As to a dosing suspension, 0.5 w/v % HPMC aqueous solution was used as a vehicle, the required amounts of test compound were pre-weighed for each dose group, and it was prepared in a specified concentration with mortar and pestleon the day of administration. Dose volume was 5 mL/kg (calculated on the basis of body weight measured on the day of administration). […]
A clinical sign was observed before administration and during TK blood sampling on the day of administration, and once in the morning every day on the day other than administration. Body weight was measured in the pre-dosing term (−5th day, −1st day), on the day of administration and on the next day after administration.
Feeding was carried out every day, and food consumption (g/day) was calculated from the remaining food in the next morning after feeding. […]

[2] = system: type II collagen-induced arthritis in DBA/1J mice; experiment: Effect on type II collagen-induced arthritis in DBA/1J mice; type: in vivo, mouse; settings: oral, once a day for three weeks from booster immunization; significant inhibitory effect on arthritis
Experimental: Effect on Type II Collagen-Induced Arthritis in DBA/1J Mice
An emulsion was prepared by mixing 200 μg of bovine type II collagen (purchased from collagen Gijyutsu Kenshuukai) with Freund's complete adjuvant (Sigma-Aldrich) containing killed Mycobacterium tuberculosis H37Ra, and arthritis was induced by immunization through subcutaneous administration of the emulsion to the tail of 6 to 7 week-old male DBA/1J mouse (Charles River Japan, Inc.), followed by booster immunization three weeks after the first immunization by administration of the same amounts of the emulsion prepared in a similar way. Test compound was suspended or dissolved in 0.5% carboxymethylcellulose (Sigma-Aldrich) and repeatedly administered orally once a day at a dose of 1 to 10 mg/kg body weight using an oral sonde for three weeks from the day of booster immunization. In this model, the symptom of arthritis of the limbs was each evaluated according to the following evaluation criteria of 0 to 4 scores: […], No change; 1, edema in only one joint; 2, edema in two or more joints, or mild edema of the entire limb; 3, severe edema of the entire limb; 4, severe edema of the entire limb and ankylosis and immovability of joint. The score of arthritis of each mouse was expressed as the total of the scores of the limbs (Maximum: 16 points). On the next day of the final administration, soft X-ray photograph of the limbs was taken with soft X-ray equipment (Omic), and the level of joint destruction was evaluated by observation under a microscope. In each finger of the limbs the score of joint destruction in each mouse was judged in the total of scores for each finger of limbs (Maximum: 20) as 0 when no joint destruction was found, and as 1 when one or more destruction was found. The arthritis score and joint destruction score were expressed as the average value and standard error for each group (n=6 to 9). Only a vehicle was administered in a control group, and statistical analysis was performed by Dunnett's multiple comparison test, in which the case was judged as significant when the p value was less than 0.05.

Structure (SMILES) | Changes caused by administration (clinical signs, body weight, food consumption, hematology, blood chemistry incl. ALT, AST, TBil) [1] | Effective Dose (showing arthritis-inhibiting activity) [2]
Cc1c(C(=O)Nc2cnc(N3CCC(O)CC3)c(C3CC3)c2)cnn1-c1ccc(Cl)cc1 [Example 39, 1-(4-chlorophenyl)-N-[5-cyclopropyl-6-(4-hydroxypiperidin-1-yl)pyridin-3-yl]-5-methyl-1H-pyrazole-4-carboxamide] | no changes caused by administration were found in any doses | 3 mg/kg
Cc1c(C(=O)Nc2cnc(N3CCC(O)CC3)c(C#N)c2)cnn1-c1ccc(C(F)(F)F)cc1 [Example 45, N-[5-cyano-6-(4-hydroxypiperidin-1-yl)pyridin-3-yl]-5-methyl-1-[4-(trifluoromethyl)phenyl]-1H-pyrazole-4-carboxamide] |  | 10 mg/kg
Cc1c(C(=O)Nc2cnc(N3CCC(O)CC3)c(C#N)c2)cnn1-c1ccc(Cl)cc1 [Example 44, 1-(4-chlorophenyl)-N-[5-cyano-6-(4-hydroxypiperidin-1-yl)pyridin-3-yl]-5-methyl-1H-pyrazole-4-carboxamide] |  | 3 mg/kg

From US9527859B2, “Amidopyridine derivative and use thereof” (Mitsubishi Tanabe Pharma Corporation, priority 2012, dated 2016)
